Patent US6525001B1, “Substituted pyrimidine and pyridine herbicides” (Mid-American Commercialization Corporation, priority 1997, dated 2003)

How the values were obtained:
Assay in all cases: Test D
Assay type in all cases: in vivo
[1] = system: common poppy (Papaver rhoeas); parameters: key: 0 is no effect; 100 is complete control; conditions: PREEMERGENCE
[2] = system: deadnettle (Lamium amplexicaule); conditions: PREEMERGENCE
[3] = system: field violet (Viola arvensis); conditions: PREEMERGENCE
[4] = system: lambsquarters (Chenopodium album); parameters: key: 0 is no effect; 100 is complete control; conditions: PREEMERGENCE
[5] = system: sunflower (Helianthus annuus); parameters: key: 0 is no effect; 100 is complete control; conditions: PREEMERGENCE
[6] = system: spring wheat (Triticum aestivum); conditions: PREEMERGENCE
wild oat (Avena fatua) [7] = conditions: PREEMERGENCE
[8] = system: windgrass (Apera spica-venti); parameters: key: 0 is no effect; 100 is complete control; conditions: PREEMERGENCE
[9] = system: Italian ryegrass (Lolium multiflorum); conditions: POSTEMERGENCE
Description: (§1) Compounds evaluated in this test were formulated in a non-phytotoxic solvent mixture which included a surfactant and applied to plants that were in the 1- to 4-leaf stage (postemergence application). A mixture of sandy loam soil and greenhouse potting mix in a 60:40 ratio was used for the postemergence test.
(§2) Plantings of these crops and weed species were adjusted to produce plants of appropriate size for the postemergence test. All plant species were grown using normal greenhouse practices. Crop and weed species include alfalfa (Medicago sativa), annual bluegrass (Poa annua), blackgrass (Alopecurus myosuroides), black nightshade (Solanum nigra), chickweed (Stellaria media), common poppy (Papaver rhoeas), deadnettle (Lamium amplexicaule), downy brome (Bromus tectorum), field violet (Viola arvensis), galium 2 (Galium aparine), green foxtail (Setaria viridis), Italian ryegrass (Lolium multiflorum), jointed goatgrass (Aegilops cylindrica), kochia (Kochia scoparia), lambsquarters (Chenopodium album), lentil (Lens culinaris), littleseed canarygrass (Phalaris minor), pea (Pisum sativum), potato (Solanum tuberosum), rape (Brassica napus), redroot pigweed (Amaranthus retroflexus), Russian thistle (Salsola kali), scentless chamomile (Matricaria inodora), sorghum (Sorghum vulgare), spring barley (Hordeum vulgare), sugar beet (Beta vulgaris), sunflower (Helianthus annuus), ivyleaf speedwell (Veronica hederaefolia), spring wheat (Triticum aestivum), winter wheat (Triticum aestivum), wild buckwheat (Polygonum convolvulus), wild mustard (Sinapis arvensis), wild oat (Avena fatua), windgrass (Apera spica-venti) and winter barley (Hordeum vulgare).
(§3) Treated plants and untreated controls were maintained in a greenhouse for approximately 21 to 28 days, after which all treated plants were compared to untreated controls and visually evaluated. Plant response ratings, summarized in Table D, are based upon a 0 to 100 scale where 0 is no effect and 100 is complete control. A dash response (−) means no test result.

[10] = system: annual bluegrass (Poa annua); conditions: POSTEMERGENCE
Description: as §1, §2, §3

[11] = system: blackgrass (Alopecurus myosuroides); conditions: POSTEMERGENCE
Description: as §1, §2, §3

[12] = system: downy brome (Bromus tectorum); conditions: POSTEMERGENCE
Description: as §1, §2, §3

[13] = system: green foxtail (Setaria viridis); conditions: POSTEMERGENCE
Description: as §1, §2, §3

[14] = system: jointed goatgrass (Aegilops cylindrica); conditions: POSTEMERGENCE
Description: as §1, §2, §3

[15] = system: littleseed canarygrass (Phalaris minor); conditions: POSTEMERGENCE
Description: as §1, §2, §3

[16] = system: scentless chamomile (Matricaria inodora); conditions: POSTEMERGENCE
Description: as §1, §2, §3

[17] = system: spring barley (Hordeum vulgare); conditions: POSTEMERGENCE
Description: as §1, §2, §3

[18] = system: spring wheat (Triticum aestivum); conditions: POSTEMERGENCE
Description: as §1, §2, §3

[19] = system: sunflower (Helianthus annuus); conditions: POSTEMERGENCE
Description: as §1, §2, §3

wild oat (Avena fatua) [20] = conditions: POSTEMERGENCE
Description: as §1, §2, §3

[21] = system: windgrass (Apera spica-venti); conditions: POSTEMERGENCE
Description: as §1, §2, §3

[22] = system: winter barley (Hordeum vulgare); conditions: POSTEMERGENCE
Description: as §1, §2, §3

[23] = system: winter wheat (Triticum aestivum); conditions: POSTEMERGENCE
Description: as §1, §2, §3

Cc1cnc(-n2cnc(C(F)(F)F)n2)nc1Cn1ccc(C(F)(F)F)n1 [Compound 51]
Plant response rating, Common poppy ([1]; Rate 31 g/ha): 100
Plant response rating, Common poppy ([1]; Rate 62 g/ha): 100
Plant response rating, Deadnettle ([2]; Rate 31 g/ha): 80
Plant response rating, Deadnettle ([2]; Rate 62 g/ha): 80
Plant response rating, Field violet ([3]; Rate 31 g/ha): 65
Plant response rating, Field violet ([3]; Rate 62 g/ha): 65
Plant response rating, Lambsquarters ([4]; Rate 31 g/ha): 70
Plant response rating, Lambsquarters ([4]; Rate 62 g/ha): 70
Plant response rating, Sunflower ([5]; Rate 31 g/ha): 40
Plant response rating, Sunflower ([5]; Rate 62 g/ha): 40
Plant response rating, Spring Wheat ([6]; Rate 31 g/ha): 60
Plant response rating, Spring Wheat ([6]; Rate 62 g/ha): 70
Plant response rating, Wild oat (wild oat (Avena fatua) [7]; Rate 31 g/ha): 80
Plant response rating, Wild oat (wild oat (Avena fatua) [7]; Rate 62 g/ha): 95
Plant response rating, Windgrass ([8]; Rate 31 g/ha): 100
Plant response rating, Windgrass ([8]; Rate 62 g/ha): 100

Cc1cnc(-n2ccc(C(F)(F)F)n2)nc1Cn1ccc(C(F)(F)F)n1 [Compound 52]
Plant response rating, I. Ryegrass ([9]; Rate 16 g/ha): 5
Plant response rating, I. Ryegrass ([9]; Rate 31 g/ha): 10
Plant response rating, I. Ryegrass ([9]; Rate 62 g/ha): 10
Plant response rating, I. Ryegrass ([9]; Rate 125 g/ha): 10
Plant response rating, Annual bluegras ([10]; Rate 16 g/ha): 10
Plant response rating, Annual bluegras ([10]; Rate 31 g/ha): 20
Plant response rating, Annual bluegras ([10]; Rate 62 g/ha): 20
Plant response rating, Annual bluegras ([10]; Rate 125 g/ha): 50
Plant response rating, Blackgrass ([11]; Rate 16 g/ha): 10
Plant response rating, Blackgrass ([11]; Rate 31 g/ha): 10
Plant response rating, Blackgrass ([11]; Rate 62 g/ha): 10
Plant response rating, Blackgrass ([11]; Rate 125 g/ha): 10
Plant response rating, Downy brome ([12]; Rate 16 g/ha): 10
Plant response rating, Downy brome ([12]; Rate 31 g/ha): 20
Plant response rating, Downy brome ([12]; Rate 62 g/ha): 20
Plant response rating, Downy brome ([12]; Rate 125 g/ha): 20
Plant response rating, Green foxtail ([13]; Rate 16 g/ha): 10
Plant response rating, Green foxtail ([13]; Rate 31 g/ha): 10
Plant response rating, Green foxtail ([13]; Rate 62 g/ha): 10
Plant response rating, Green foxtail ([13]; Rate 125 g/ha): 30
Plant response rating, Jointed goatgra ([14]; Rate 16 g/ha): 10
Plant response rating, Jointed goatgra ([14]; Rate 31 g/ha): 10
Plant response rating, Jointed goatgra ([14]; Rate 62 g/ha): 10
Plant response rating, Jointed goatgra ([14]; Rate 125 g/ha): 10
Plant response rating, LS canarygrass ([15]; Rate 16 g/ha): 10
Plant response rating, LS canarygrass ([15]; Rate 31 g/ha): 10
Plant response rating, LS canarygrass ([15]; Rate 62 g/ha): 10
Plant response rating, LS canarygrass ([15]; Rate 125 g/ha): 20
Plant response rating, Scentless chamo ([16]; Rate 16 g/ha): 30
Plant response rating, Scentless chamo ([16]; Rate 31 g/ha): 50
Plant response rating, Scentless chamo ([16]; Rate 62 g/ha): 60
Plant response rating, Scentless chamo ([16]; Rate 125 g/ha): 70
Plant response rating, Spring Barley ([17]; Rate 16 g/ha): 10
Plant response rating, Spring Barley ([17]; Rate 31 g/ha): 10
Plant response rating, Spring Barley ([17]; Rate 62 g/ha): 10
Plant response rating, Spring Barley ([17]; Rate 125 g/ha): 10
Plant response rating, Spring Wheat ([18]; Rate 16 g/ha): 10
Plant response rating, Spring Wheat ([18]; Rate 31 g/ha): 10
Plant response rating, Spring Wheat ([18]; Rate 62 g/ha): 10
Plant response rating, Spring Wheat ([18]; Rate 125 g/ha): 10
Plant response rating, Sunflower ([19]; Rate 16 g/ha): 40
Plant response rating, Sunflower ([19]; Rate 31 g/ha): 20
Plant response rating, Sunflower ([19]; Rate 62 g/ha): 50
Plant response rating, Sunflower ([19]; Rate 125 g/ha): 70
Plant response rating, Wild oat (wild oat (Avena fatua) [20]; Rate 16 g/ha): 10
Plant response rating, Wild oat (wild oat (Avena fatua) [20]; Rate 31 g/ha): 10
Plant response rating, Wild oat (wild oat (Avena fatua) [20]; Rate 62 g/ha): 10
Plant response rating, Wild oat (wild oat (Avena fatua) [20]; Rate 125 g/ha): 10
Plant response rating, Windgrass ([21]; Rate 16 g/ha): 10
Plant response rating, Windgrass ([21]; Rate 31 g/ha): 10
Plant response rating, Windgrass ([21]; Rate 62 g/ha): 20
Plant response rating, Windgrass ([21]; Rate 125 g/ha): 50
Plant response rating, Barley (winter) ([22]; Rate 16 g/ha): 10
Plant response rating, Barley (winter) ([22]; Rate 31 g/ha): 10
Plant response rating, Barley (winter) ([22]; Rate 62 g/ha): 10
Plant response rating, Barley (winter) ([22]; Rate 125 g/ha): 10
Plant response rating, Wheat (winter) ([23]; Rate 16 g/ha): 10
Plant response rating, Wheat (winter) ([23]; Rate 31 g/ha): 10
Plant response rating, Wheat (winter) ([23]; Rate 62 g/ha): 10
Plant response rating, Wheat (winter) ([23]; Rate 125 g/ha): 10
Plant response rating, Deadnettle ([2]; Rate 31 g/ha): 50
Plant response rating, Deadnettle ([2]; Rate 62 g/ha): 70
Plant response rating, Deadnettle ([2]; Rate 125 g/ha): 90
Plant response rating, Lambsquarters ([4]; Rate 31 g/ha): 90
Plant response rating, Lambsquarters ([4]; Rate 62 g/ha): 90
Plant response rating, Lambsquarters ([4]; Rate 125 g/ha): 100
Plant response rating, Sunflower ([5]; Rate 31 g/ha): 0
Plant response rating, Sunflower ([5]; Rate 62 g/ha): 0
Plant response rating, Sunflower ([5]; Rate 125 g/ha): 0
Plant response rating, Spring Wheat ([6]; Rate 31 g/ha): 60
Plant response rating, Spring Wheat ([6]; Rate 62 g/ha): 70
Plant response rating, Spring Wheat ([6]; Rate 125 g/ha): 70
Plant response rating, Wild oat (wild oat (Avena fatua) [7]; Rate 31 g/ha): 40
Plant response rating, Wild oat (wild oat (Avena fatua) [7]; Rate 62 g/ha): 50
Plant response rating, Wild oat (wild oat (Avena fatua) [7]; Rate 125 g/ha): 60
Plant response rating, Windgrass ([8]; Rate 31 g/ha): 80
Plant response rating, Windgrass ([8]; Rate 62 g/ha): 100
Plant response rating, Windgrass ([8]; Rate 125 g/ha): 100
